Test results reported in the supplement of paper PMC11208160.

Experiment: recombinant barcode read abundance after kanamycin selection (control-corrected) (log10(CPM+1)); higher = more efficient recombination; sequences stand for … in AGTGCAGAGAAAATCGGCCAGTTTTCTCTGCCTGCAGTCCGCATGCCGT…AGATTTATGCAGCGGACTGCCTTTCTCCCAAAGTGATAAACCGGACAGTATCATGGACCGGTTTTCCCGGTAATCCGTATTTGCAAGGTTGGTTTCACT; site = the 11-nt target
Summary of the method: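 Pooled E. coli screen pairing targets with IS621 bridge RNA target-binding loops. Each oligo (promoter, target, barcode, J23119-driven first 104 bridge RNA bases) was Gibson-cloned into a vector with the remaining 73 bp and T7-inducible recombinase, then co-electroporated with a donor plasmid. Two replicates each were plated on chloramphenicol/ampicillin LB agar (control) or chloramphenicol/ampicillin/kanamycin with 0.1 mM IPTG. Recombination efficiency is recombinant-junction barcode counts as CPM, averaged, control-corrected, reported as log10(CPM+1).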
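Further: IS621 recombinase and bridge RNA in Escherichia coli cells.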

Sequence | recombinant barcode read abundance (log10)
AGTCTAGCTTGGGTTCTAACCTGTTGCCG (site AGTCTAGCTCG) | 0.67
AGTCTAGCTTGGGTTCTAACCTGTTGCCG (site AGTCTAGCTGG) | 0.0274
AGTCTAGCTTGGGTTCTAACCTGTTGCCG (site AGTCTAGCTTG) | 0.641
AGTCTCCCTTGGGTTCTAACCTGTTGCCT (site AGACTCCCTAG) | 0.372
AGTCTCCCTTGGGTTCTAACCTGTTGCCT (site AGCCTCCCTAG) | 0.0404
AGTCTCCCTTGGGTTCTAACCTGTTGCCT (site AGGCTCCCTAG) | 0.0232
AGTCTCCCTTGGGTTCTAACCTGTTGCCT (site AGTCTCCCTAG) | 1.56
AGTCTCTCTTGGGTTCTAACCTGTTGCCG (site AGTCTCTCTCG) | 0.357
AGTCTCTCTTGGGTTCTAACCTGTTGCCG (site AGTCTCTCTTA) | 0.0569
AGTGCGGCTTGGGTTCTAACCTGTTGCCT (site AGTGCGGCTAG) | 0.685
AGTGCGGCTTGGGTTCTAACCTGTTGCCT (site CGTGCGGCTAG) | 0.231
AGTGCGGCTTGGGTTCTAACCTGTTGCCT (site GGTGCGGCTAG) | 0.0363
AGTGCGGCTTGGGTTCTAACCTGTTGCCT (site TGTGCGGCTAG) | 0.143
AGTTAACCTTGGGTTCTAACCTGTTGCGG (site ACTTGACCTCC) | 0.0373
AGTTAACCTTGGGTTCTAACCTGTTGCGG (site AGTTAACCTCC) | 1.97
AGTTACACTTGGGTTCTAACCTGTTGCCT (site AGTTACACTAG) | 0.637
AGTTACACTTGGGTTCTAACCTGTTGCCT (site AGTTCCACTAG) | 0.0139
AGTTACACTTGGGTTCTAACCTGTTGCCT (site AGTTGCACTAG) | 0.0991
AGTTACACTTGGGTTCTAACCTGTTGCCT (site AGTTTCACTAG) | 0.0317
AGTTAGCCTTGGGTTCTAACCTGTTGCCT (site AGTAAGCCTAG) | 0.107
AGTTAGCCTTGGGTTCTAACCTGTTGCCT (site AGTCAGCCTAG) | 0.161
AGTTAGCCTTGGGTTCTAACCTGTTGCCT (site AGTGAGCCTAG) | 0.114
AGTTAGCCTTGGGTTCTAACCTGTTGCCT (site AGTTAGCCTAG) | 0.361
AGTTAGTCTTGGGTTCTAACCTGTTGCAG (site AGTTAGTCTCT) | 1.48
AGTTAGTCTTGGGTTCTAACCTGTTGCAG (site GTACGCACTAG) | 0.0583
AGTTCACCTTGGGTTCTAACCTGTTGCTA (site AGTTCACCTTA) | 0.0738

Sequence | recombinant barcode read abundance (log10)
AGTTCACCTTGGGTTCTAACCTGTTGCTA (site GAGGGCTCTCC) | 0.314
AGTTCATCTTGGGTTCTAACCTGTTGCAT (site AGTTCATCTAT) | 0.0989
AGTTCATCTTGGGTTCTAACCTGTTGCAT (site CTAGATGCTTC) | 0
AGTTGCCCTTGGGTTCTAACCTGTTGCCT (site AATTGCCCTAG) | 0.738
AGTTGCCCTTGGGTTCTAACCTGTTGCCT (site ACTTGCCCTAG) | 0.068
AGTTGCCCTTGGGTTCTAACCTGTTGCCT (site AGTTGCCCTAG) | 0.457
AGTTGCCCTTGGGTTCTAACCTGTTGCCT (site ATTTGCCCTAG) | 0.0653
AGTTGGCCTTGGGTTCTAACCTGTTGCGA (site AGTTGGCCTTC) | 0.45
AGTTGGCCTTGGGTTCTAACCTGTTGCGA (site CCACCTTCTAG) | 0.123
AGTTGTCCTTGGGTTCTAACCTGTTGCCT (site AGTTGTCCTAA) | 0.174
AGTTGTCCTTGGGTTCTAACCTGTTGCCT (site AGTTGTCCTAC) | 0.0671
AGTTGTCCTTGGGTTCTAACCTGTTGCCT (site AGTTGTCCTAG) | 0.132
AGTTGTCCTTGGGTTCTAACCTGTTGCCT (site AGTTGTCCTAT) | 0.296
ATAACTACTTGGGTTCTAACCTGTTGCTT (site ATAACTACTAA) | 0.216
ATAACTACTTGGGTTCTAACCTGTTGCTT (site TACCTACCTTC) | 0.0357
ATAAGCCCTTGGGTTCTAACCTGTTGCCT (site AAAAGCCCTAG) | 0.176
ATAAGCCCTTGGGTTCTAACCTGTTGCCT (site ACAAGCCCTAG) | 0.212
ATAAGCCCTTGGGTTCTAACCTGTTGCCT (site AGAAGCCCTAG) | 0.166
ATAAGCCCTTGGGTTCTAACCTGTTGCCT (site ATAAGCCCTAG) | 1.36
ATAAGCTCTTGGGTTCTAACCTGTTGCCT (site ATAAGCTCTAG) | 2.3
ATAAGCTCTTGGGTTCTAACCTGTTGCCT (site CTAAGCTCTAG) | 0.289
ATAAGCTCTTGGGTTCTAACCTGTTGCCT (site GTAAGCTCTAG) | 0.119
ATAAGCTCTTGGGTTCTAACCTGTTGCCT (site TTAAGCTCTAG) | 0.766
ATAAGGACTTGGGTTCTAACCTGTTGCTA (site ATAAGGACTTA) | 2.01
ATAAGGACTTGGGTTCTAACCTGTTGCTA (site ATACGGACTTA) | 0.111
ATAAGGACTTGGGTTCTAACCTGTTGCTA (site ATAGGGACTTA) | 1.26

Sequence | recombinant barcode read abundance (log10)
ATAAGGACTTGGGTTCTAACCTGTTGCTA (site ATATGGACTTA) | 0.52
ATAAGGGCTTGGGTTCTAACCTGTTGCCT (site ATAAATGCTAG) | 0.183
ATAAGGGCTTGGGTTCTAACCTGTTGCCT (site ATAAGGGCTAG) | 0.652
ATAAGTCCTTGGGTTCTAACCTGTTGCCA (site ATAAGTCCTTG) | 0.582
ATAAGTCCTTGGGTTCTAACCTGTTGCCA (site GTAAGTACTTG) | 0.0629
ATACGTACTTGGGTTCTAACCTGTTGCCT (site ATACGTACTAG) | 1.74
ATACGTACTTGGGTTCTAACCTGTTGCCT (site CTACGTACTAG) | 0.0799
ATACGTACTTGGGTTCTAACCTGTTGCCT (site GTACGTACTAG) | 0.067
ATACGTACTTGGGTTCTAACCTGTTGCCT (site TTACGTACTAG) | 0.0363
ATACTACCTTGGGTTCTAACCTGTTGCGG (site ATACTACCTCC) | 1.4
ATACTACCTTGGGTTCTAACCTGTTGCGG (site ATCCCACCTCC) | 0.119
ATATACTCTTGGGTTCTAACCTGTTGCCG (site ATATACTCTCG) | 2.38
ATATACTCTTGGGTTCTAACCTGTTGCCG (site ATCTACTCTAG) | 0.0335
ATATGAGCTTGGGTTCTAACCTGTTGCCG (site ATATGAGCTCG) | 0.307
ATATGAGCTTGGGTTCTAACCTGTTGCCG (site ATATGCGCTCG) | 0.175
ATATGAGCTTGGGTTCTAACCTGTTGCCG (site ATATGGGCTCG) | 0.0468
ATATGAGCTTGGGTTCTAACCTGTTGCCG (site ATATGTGCTCG) | 0.167
ATATGAGCTTGGGTTCTAACCTGTTGCTT (site ACATGACCTAA) | 0.177
ATATGAGCTTGGGTTCTAACCTGTTGCTT (site ATATGAGCTAA) | 0.283
ATCAACCCTTGGGTTCTAACCTGTTGCCA (site ATCAACCCTTG) | 1.04
ATCAACCCTTGGGTTCTAACCTGTTGCCA (site TCGTCTACTGA) | 0.375
ATCACAGCTTGGGTTCTAACCTGTTGCCT (site ATCAAAGCTAG) | 0.136
ATCACAGCTTGGGTTCTAACCTGTTGCCT (site ATCACAGCTAG) | 0.736
ATCACGCCTTGGGTTCTAACCTGTTGCCT (site ACCACGCCTAG) | 0.128
ATCACGCCTTGGGTTCTAACCTGTTGCCT (site ATCACGCCTAG) | 0.544
